Laboratory results reported in patent US20100167275A1, “Potassium channel mutants of the yeast Saccharomyces cerevisiae and their use for screening eukaryotic potassium channels” (sanofi-aventis Deutschland GmbH, priority 2000, published 2010).
Like-named read-outs stand apart in the source and are kept apart here.

System: Saccharomyces cerevisiae wild-type strain
Type: cell-based
Protocol: FIG. 9: Growth of the Saccharomyces cerevisiae wild-type strain in DPM-HIS/-TRP 5 mM KCl medium in 96-well ELISA plates in the presence of 0.5 mM CsCl. The various inhibitors were employed at a final concentration of in each case 30 μM. To measure the cell density, a commercially available LacZ reporter system pYX232 by Ingenius (cat. No. MBV-032-10) was transformed into the yeast strains to be studied. Expression of the LacZ reporter gene was under the control of the constitutive Saccharomyces cerevisiae promotor TPI for the triose phosphate isomerase gene. The LacZ enzyme activity was measured via detecting the luminescence after 24 hours' growth (density of the starter culture: 0.01 OD620) using a commercially available assay system by TROPIX.
The values correspond to the average of in each case 4 measurements±SD. The two different assays were carried out independently of each other on two different days.
All substances, dissolved in DMSO, were employed in a final concentration of 30 μM. As a control, cells were measured with the same final concentration of 0.5% DMSO without substance, without DMSO addition or without substance.

[1] = 30 μM, wild-type cells, DPM -HIS/-TRP, 0.5 mM CsCl, 24 hours growth, TROPIX kit, ASSAY 1
[2] = 30 μM, wild-type cells, DPM -HIS/-TRP, 0.5 mM CsCl, 24 hours growth, TROPIX kit, ASSAY 1, mean of 4
[3] = 30 μM, wild-type cells, DPM -HIS/-TRP, 0.5 mM CsCl, 24 hours growth, TROPIX kit, ASSAY 2
[4] = 30 μM, wild-type cells, DPM -HIS/-TRP, 0.5 mM CsCl, 24 hours growth, TROPIX kit, ASSAY 2, mean of 4

Row | Compound | Exp. 1 (LacZ luminescence), ASSAY 1 [1] | Exp. 2 (LacZ luminescence), ASSAY 1 [1] | Exp. 3 (LacZ luminescence), ASSAY 1 [1] | Exp. 4 (LacZ luminescence), ASSAY 1 [1] | Mean growth (LacZ luminescence), ASSAY 1 [2] | Exp. 1 (LacZ luminescence), ASSAY 2 [3] | Exp. 2 (LacZ luminescence), ASSAY 2 [3] | Exp. 3 (LacZ luminescence), ASSAY 2 [3] | Exp. 4 (LacZ luminescence), ASSAY 2 [3] | Mean growth (LacZ luminescence), ASSAY 2 [4] | also measured
1 | CN(C)CCOC(c1ccccc1)c1ccccc1 [Diphenhydramine] | 2806 | 3161 | 4178 | 4884 | 3757.25 | 3468 | 2980 | 3062 | 3581 | 3267.75 | 
2 | CCOC(=O)N1CCC(=C2c3ccc(Cl)cc3CCc3cccnc32)CC1 [Loratadine, ethyl 4-(8-chloro-5,6-dihydro-11H-benzo[5,6]cyclohepta[1,2-b]pyridin-11-ylidene)-1-piperidinecarboxytate] | 4905 | 5141 | 1857 | 3266 | 3792.25 | 3553 | 1965 | 3590 | 2478 | 2896.5 | 
3 | O=C1NCCN1CCN1CCC(c2cn(-c3ccc(F)cc3)c3ccc(Cl)cc23)CC1 [Sertindole, 1-(2-[4-[5-chloro-1-(4-fluorophenyl)-1H-indol-3-yl]-1-piperidinyl]ethyl)-2-imidazolidinone] | 4165 | 2099 | 4588 | 3069 | 3480.25 | 3992 | 3076 | 3972 | 2782 | 3455.5 | specificity of inhibition of the human HERG1 channel (comparison with wild-type strain): specific inhibitors
4 | CC(C)(C)c1ccc(C(O)CCCN2CCC(C(O)(c3ccccc3)c3ccccc3)CC2)cc1 (stereo not drawn) [Terfenadine, α-(4-tert-butylphenyl)-4-(α-hydroxy-αphenylbenzyl)-1-piperidinebutanol] |  |  |  |  |  |  |  |  |  |  | Exp. 1 (LacZ luminescence), ASSAY 1: 4497; Exp. 1 (LacZ luminescence), ASSAY 2: 3439; Exp. 2 (LacZ luminescence), ASSAY 1: 4481; Exp. 2 (LacZ luminescence), ASSAY 2: 3795; Exp. 3 (LacZ luminescence), ASSAY 1: 5058; Exp. 3 (LacZ luminescence), ASSAY 2: 3698; Exp. 4 (LacZ luminescence), ASSAY 1: 5381; Exp. 4 (LacZ luminescence), ASSAY 2: 3388; Mean growth (LacZ luminescence), ASSAY 1: 4854.25; Mean growth (LacZ luminescence), ASSAY 2: 3580
